Measured values reported in patent US20230123334A1, “AMINO LIPID COMPOUND, PREPARATION METHOD THEREFOR, AND APPLICATION THEREOF” (SHENZHEN SHENXIN BIOTECHNOLOGY CO., LTD., priority 2020, published 2023).

Key:
[1] = test system: HEK293 cells; assay: Preliminary screening as DNA vectors, GFP transfection of HEK293 cells; type: cell-based; settings: HEK293 cells; lipid/DOPE liposome with 75 ng plasmid DNA (psin-EGFP-IRES-Puro); number of cells expressing GFP divided by total number of nuclei (Hoechst)
Summary of the method: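 HEK293 cells in DMEM/10% FBS transfected with 75 ng EGFP plasmid per well complexed with amino lipid/DOPE liposomes in pH 5.6 sodium acetate. Hoechst nuclear stain added 20-24 h post-transfection, then cells cultured another 20-24 h. Confocal imaging gives GFP-positive cells as % of total nuclei.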

[2] = test system: HEK293 cells; assay: Preliminary screening as mRNA vectors, EGFP mRNA transfection of HEK293 cells; type: cell-based; settings: HEK293 cells, 96-well plates, EGFP mRNA 50 ng per well; percentage of GFP fluorescent cells relative to total number of cells (Hoechst)
Summary of the method: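 HEK293 cells in DMEM plus 10% FBS transfected in 96-well format with 50 ng EGFP mRNA per well; Lipofectamine2000 served as positive control. Read-out is the percentage of GFP-fluorescent cells among total cells, counted by Hoechst nuclear stain.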

CCCCCCCCCNc1nc(NCCCCCC)nc(NCCN(C)C)n1 [Compound N6N9D1]
Absolute DNA transfection efficiency in HEK293 cells [1]: 0.0% | Absolute mRNA transfection efficiency in HEK293 cells [2]: 0.0%

CCCCCCCCCNc1nc(NCCCCCC)nc(NCCN2CCOCC2)n1 [Compound N6N9D2]
Absolute DNA transfection efficiency in HEK293 cells [1]: 0.0% | Absolute mRNA transfection efficiency in HEK293 cells [2]: 0.0%

CCCCCCCCCNc1nc(NCCCCCC)nc(NCCN2CCCC2)n1 [Compound N6N9D3]
Absolute DNA transfection efficiency in HEK293 cells [1]: 0.3% | Absolute mRNA transfection efficiency in HEK293 cells [2]: 0.4%

CCCCCCCCCNc1nc(NCCCCCC)nc(NCCN2CCCCC2)n1 [Compound N6N9D4]
Absolute DNA transfection efficiency in HEK293 cells [1]: 0.0% | Absolute mRNA transfection efficiency in HEK293 cells [2]: 0.3%

CCCCCCCCCNc1nc(NCCCCCC)nc(NCCN2CCN(C)CC2)n1 [Compound N6N9D5]
Absolute DNA transfection efficiency in HEK293 cells [1]: 0.0% | Absolute mRNA transfection efficiency in HEK293 cells [2]: 0.1%

CCCCCCCCCNc1nc(NCCCCCC)nc(NCCCN(C)C)n1 [Compound N6N9D6]
Absolute DNA transfection efficiency in HEK293 cells [1]: 0.0% | Absolute mRNA transfection efficiency in HEK293 cells [2]: 0.2%

CCCCCCCCCNc1nc(NCCCCCC)nc(NCCN(CC)CC)n1 [Compound N6N9D7]
Absolute DNA transfection efficiency in HEK293 cells [1]: 0.0% | Absolute mRNA transfection efficiency in HEK293 cells [2]: 0.0%

CCCCCCCCCNc1nc(NCCCCCC)nc(NCCCN2CCOCC2)n1 [Compound N6N9D8]
Absolute DNA transfection efficiency in HEK293 cells [1]: 0.0% | Absolute mRNA transfection efficiency in HEK293 cells [2]: 0.0%

CCCCCCCCCNc1nc(NCCCCCC)nc(NCCCN2CCN(C)CC2)n1 [Compound N6N9D9]
Absolute DNA transfection efficiency in HEK293 cells [1]: 0.0% | Absolute mRNA transfection efficiency in HEK293 cells [2]: 0.0%

CCCCCCCCCNc1nc(NCCCCCC)nc(NCC2CCN(C)CC2)n1 [Compound N6N9D10]
Absolute DNA transfection efficiency in HEK293 cells [1]: 0.0% | Absolute mRNA transfection efficiency in HEK293 cells [2]: 0.3%

CCCCCCCCCCCNc1nc(NCCCCCC)nc(NCCN(C)C)n1 [Compound N6N11D1]
Absolute DNA transfection efficiency in HEK293 cells [1]: 0.0% | Absolute mRNA transfection efficiency in HEK293 cells [2]: 0.1%

CCCCCCCCCCCNc1nc(NCCCCCC)nc(NCCN2CCOCC2)n1 [Compound N6N11D2]
Absolute DNA transfection efficiency in HEK293 cells [1]: 0.0% | Absolute mRNA transfection efficiency in HEK293 cells [2]: 0.0%

CCCCCCCCCCCNc1nc(NCCCCCC)nc(NCCN2CCCC2)n1 [Compound N6N11D3]
Absolute DNA transfection efficiency in HEK293 cells [1]: 0.3% | Absolute mRNA transfection efficiency in HEK293 cells [2]: 0.9%

CCCCCCCCCCCNc1nc(NCCCCCC)nc(NCCN2CCCCC2)n1 [Compound N6N11D4]
Absolute DNA transfection efficiency in HEK293 cells [1]: 0.0% | Absolute mRNA transfection efficiency in HEK293 cells [2]: 0.0%

CCCCCCCCCCCNc1nc(NCCCCCC)nc(NCCN2CCN(C)CC2)n1 [Compound N6N11D5]
Absolute DNA transfection efficiency in HEK293 cells [1]: 0.1% | Absolute mRNA transfection efficiency in HEK293 cells [2]: 0.5%

CCCCCCCCCCCNc1nc(NCCCCCC)nc(NCCCN(C)C)n1 [Compound N6N11D6]
Absolute DNA transfection efficiency in HEK293 cells [1]: 0.2% | Absolute mRNA transfection efficiency in HEK293 cells [2]: 0.0%

CCCCCCCCCCCNc1nc(NCCCCCC)nc(NCCN(CC)CC)n1 [Compound N6N11D7]
Absolute DNA transfection efficiency in HEK293 cells [1]: 0.0% | Absolute mRNA transfection efficiency in HEK293 cells [2]: 0.0%

CCCCCCCCCCCNc1nc(NCCCCCC)nc(NCCCN2CCOCC2)n1 [Compound N6N11D8]
Absolute DNA transfection efficiency in HEK293 cells [1]: 0.0% | Absolute mRNA transfection efficiency in HEK293 cells [2]: 0.1%

CCCCCCCCCCCNc1nc(NN)nc(NCCCN2CCN(C)CC2)n1 [Compound N6N11D9]
Absolute DNA transfection efficiency in HEK293 cells [1]: 0.0% | Absolute mRNA transfection efficiency in HEK293 cells [2]: 0.0%

CCCCCCCCCCCNc1nc(NCCCCCC)nc(NCC2CCN(C)CC2)n1 [Compound N6N11D10]
Absolute DNA transfection efficiency in HEK293 cells [1]: 0.0% | Absolute mRNA transfection efficiency in HEK293 cells [2]: 0.0%

CCCCCCCCCCCCNc1nc(NCCCCCC)nc(NCCN(C)C)n1 [Compound N6N12D1]
Absolute DNA transfection efficiency in HEK293 cells [1]: 0.0% | Absolute mRNA transfection efficiency in HEK293 cells [2]: 0.2%

CCCCCCCCCCCCNc1nc(NCCCCCC)nc(NCCN2CCOCC2)n1 [Compound N6N12D2]
Absolute DNA transfection efficiency in HEK293 cells [1]: 0.0% | Absolute mRNA transfection efficiency in HEK293 cells [2]: 0.0%

CCCCCCCCCCCCNc1nc(NCCCCCC)nc(NCCN2CCCC2)n1 [Compound N6N12D3]
Absolute DNA transfection efficiency in HEK293 cells [1]: 0.2% | Absolute mRNA transfection efficiency in HEK293 cells [2]: 0.5%

CCCCCCCCCCCCNc1nc(NCCCCCC)nc(NCCN2CCCCC2)n1 [Compound N6N12D4]
Absolute DNA transfection efficiency in HEK293 cells [1]: 0.0% | Absolute mRNA transfection efficiency in HEK293 cells [2]: 0.0%

CCCCCCCCCCCCNc1nc(NCCCCCC)nc(NCCN2CCN(C)CC2)n1 [Compound N6N12D5]
Absolute DNA transfection efficiency in HEK293 cells [1]: 0.1% | Absolute mRNA transfection efficiency in HEK293 cells [2]: 0.0%
